Where a SMILES comes first, the peptide text is derived from it. Bridges are numbered along the chain shown (N, C = ends). [ ]: non-standard residue; d: D form. The star is where a group is joined. hPhe(3-Cl-4-CF3) = N[C@@H](CCc1ccc(C(F)(F)F)c(Cl)c1)C(=O)O; NPrPhe(4-CF3) = CCCN[C@@H](Cc1ccc(C(F)(F)F)cc1)C(=O)O; Piperazinyl(4-(3-oxetanyl)) = C1OCC1N1CCN(*)CC1; NMeAbu(4,4,4-F3) = CN[C@@H](CC(F)(F)F)C(=O)O; NMeGly(cPent) = CN[C@H](C(=O)O)C1CCCC1; Pro(4,4-F2) = O=C(O)[C@@H]1CC(F)(F)CN1; NMeGly(cBu) = CN[C@H](C(=O)O)C1CCC1; Piperidide(4-Me) = CC1CCN(*)CC1; NMeD = CN[C@@H](CC(=O)O)C(=O)O; NMeL = CN[C@@H](CC(C)C)C(=O)O; Oxazolidin(3-yl) = C1CN(*)CO1; NMeNva = CCC[C@H](NC)C(=O)O; NMeAbu = CC[C@H](NC)C(=O)O; Morpholide = C1CN(*)CCO1; NMeA = CN[C@@H](C)C(=O)O; Ac5c = NC1(C(=O)O)CCCC1; Aze = O=C(O)[C@@H]1CCN1; X25 = CC1(C)CCN(*)C1; Sar = CNCC(=O)O
Assays:
[1] = biological target: GDP-bound HRAS wild-type protein (Homo sapiens, UniProt P01112); assay: Binding to HRAS by surface plasmon resonance (SPR), Single Cycle Kinetics; settings: KD ratio HRAS/KRAS, SPR
[2] = biological target: GDP-bound NRAS wild-type protein (Homo sapiens, UniProt P01111); assay: Binding to NRAS by surface plasmon resonance (SPR), Single Cycle Kinetics; settings: KD ratio NRAS/KRAS, SPR
GDP-bound NRAS wild-type protein, sequence (P01111 whole entry): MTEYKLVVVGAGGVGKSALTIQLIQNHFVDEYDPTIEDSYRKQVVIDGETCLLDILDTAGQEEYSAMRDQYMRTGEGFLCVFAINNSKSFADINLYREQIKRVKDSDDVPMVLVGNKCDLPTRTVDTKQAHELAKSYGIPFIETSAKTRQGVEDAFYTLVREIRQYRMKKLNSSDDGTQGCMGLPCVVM

GDP-bound HRAS wild-type protein, sequence (P01112 whole entry): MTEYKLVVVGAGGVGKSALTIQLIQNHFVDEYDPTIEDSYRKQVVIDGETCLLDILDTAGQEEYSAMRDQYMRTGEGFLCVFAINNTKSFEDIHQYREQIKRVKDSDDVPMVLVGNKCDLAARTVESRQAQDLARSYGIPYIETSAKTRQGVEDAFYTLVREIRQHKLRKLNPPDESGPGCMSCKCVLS

Structure (SMILES)	HRAS/KRAS (ratio of KD for GDP-bound HRAS wild-type to KD for KRAS) [1]	NRAS/KRAS (ratio of KD for GDP-bound NRAS wild-type to KD for KRAS) [2]
CCCN1C(=O)[C@@H]2CCN2C(=O)[C@H](C)N(C)C(=O)[C@H]([C@@H](C)CC)NC(=O)[C@H](CC(C)C)N(C)C(=O)C[C@@H](C(=O)N2CCOC2)N(C)C(=O)[C@H](C2CCCC2)N(C)C(=O)C2(CCCC2)NC(=O)[C@@H]2CCCN2C(=O)[C@H](CCc2ccc(C(F)(F)F)c(Cl)c2)NC(=O)CN(C)C(=O)[C@@H]1Cc1ccc(C(F)(F)F)cc1 [PP0183] ([NMeL]I[NMeA][Aze][NPrPhe(4-CF3)][Sar][hPhe(3-Cl-4-CF3)]P[Ac5c][NMeGly(cPent)][NMeD]-{Oxazolidin(3-yl)}; lactam N-11)	B (a compound having 3 or more and less than 10 is denoted as B)	C (A compound having a KD ratio of 0.1 or more and less than 3 is denoted as C)
CCCN1C(=O)[C@@H]2CCN2C(=O)[C@H](C)N(C)C(=O)[C@H]([C@@H](C)CC)NC(=O)[C@H](CC(C)C)N(C)C(=O)C[C@@H](C(=O)N2CCN(C3COC3)CC2)N(C)C(=O)[C@H](C2CCCC2)N(C)C(=O)C2(CCCC2)NC(=O)[C@@H]2CCCN2C(=O)[C@H](CCc2ccc(C(F)(F)F)c(Cl)c2)NC(=O)CN(C)C(=O)[C@@H]1Cc1ccc(C(F)(F)F)cc1 [PP0184] ([NMeL]I[NMeA][Aze][NPrPhe(4-CF3)][Sar][hPhe(3-Cl-4-CF3)]P[Ac5c][NMeGly(cPent)][NMeD]-{Piperazinyl(4-(3-oxetanyl))}; lactam N-11)	B (a compound having 3 or more and less than 10 is denoted as B)	C (A compound having a KD ratio of 0.1 or more and less than 3 is denoted as C)
CCCN1C(=O)[C@@H]2CCN2C(=O)[C@H](C)N(C)C(=O)[C@H]([C@@H](C)CC)NC(=O)[C@H](CC(C)C)N(C)C(=O)C[C@@H](C(=O)N2CCC(C)CC2)N(C)C(=O)[C@H](C2CCCC2)N(C)C(=O)C2(CCCC2)NC(=O)[C@@H]2CCCN2C(=O)[C@H](CCc2ccc(C(F)(F)F)c(Cl)c2)NC(=O)CN(C)C(=O)[C@@H]1Cc1ccc(C(F)(F)F)cc1 [PP0185] ([NMeL]I[NMeA][Aze][NPrPhe(4-CF3)][Sar][hPhe(3-Cl-4-CF3)]P[Ac5c][NMeGly(cPent)][NMeD]-{Piperidide(4-Me)}; lactam N-11)	B (a compound having 3 or more and less than 10 is denoted as B)	C (A compound having a KD ratio of 0.1 or more and less than 3 is denoted as C)
CCCN1C(=O)[C@@H]2CCN2C(=O)[C@H](C)N(C)C(=O)[C@H]([C@@H](C)CC)NC(=O)[C@H](CC(C)C)N(C)C(=O)C[C@@H](C(=O)N2CCC(C)(C)C2)N(C)C(=O)[C@H](C2CCCC2)N(C)C(=O)C2(CCCC2)NC(=O)[C@@H]2CCCN2C(=O)[C@H](CCc2ccc(C(F)(F)F)c(Cl)c2)NC(=O)CN(C)C(=O)[C@@H]1Cc1ccc(C(F)(F)F)cc1 [PP0186] ([NMeL]I[NMeA][Aze][NPrPhe(4-CF3)][Sar][hPhe(3-Cl-4-CF3)]P[Ac5c][NMeGly(cPent)][NMeD]-X25; lactam N-11)	B (a compound having 3 or more and less than 10 is denoted as B)	C (A compound having a KD ratio of 0.1 or more and less than 3 is denoted as C)
CCCN1C(=O)CN(C)C(=O)CN(C)C(=O)[C@H]([C@@H](C)CC)NC(=O)[C@H](CC(F)(F)F)N(C)C(=O)C[C@@H](C(=O)N2CCOCC2)N(C)C(=O)[C@H](C2CCCC2)N(C)C(=O)C2(CCCC2)NC(=O)[C@@H]2CCCN2C(=O)[C@H](CCc2ccc(C(F)(F)F)c(Cl)c2)NC(=O)CN(C)C(=O)[C@@H]1Cc1ccc(C(F)(F)F)cc1 [PP0187] ([NMeAbu(4,4,4-F3)]I[Sar][Sar][NPrPhe(4-CF3)][Sar][hPhe(3-Cl-4-CF3)]P[Ac5c][NMeGly(cPent)][NMeD]-Morpholide; lactam N-11)	C (A compound having a KD ratio of 0.1 or more and less than 3 is denoted as C)	B (a compound having 3 or more and less than 10 is denoted as B)
CCCN1C(=O)CN(C)C(=O)CN(C)C(=O)[C@H]([C@@H](C)CC)NC(=O)[C@H](C2CCC2)N(C)C(=O)C[C@@H](C(=O)N2CCOCC2)N(C)C(=O)[C@H](C2CCCC2)N(C)C(=O)C2(CCCC2)NC(=O)[C@@H]2CCCN2C(=O)[C@H](CCc2ccc(C(F)(F)F)c(Cl)c2)NC(=O)CN(C)C(=O)[C@@H]1Cc1ccc(C(F)(F)F)cc1 [PP0188] ([NMeGly(cBu)]I[Sar][Sar][NPrPhe(4-CF3)][Sar][hPhe(3-Cl-4-CF3)]P[Ac5c][NMeGly(cPent)][NMeD]-Morpholide; lactam N-11)	C (A compound having a KD ratio of 0.1 or more and less than 3 is denoted as C)	B (a compound having 3 or more and less than 10 is denoted as B)
CCC[C@H]1C(=O)N[C@@H]([C@@H](C)CC)C(=O)N(C)CC(=O)N(C)CC(=O)N(CCC)[C@@H](Cc2ccc(C(F)(F)F)cc2)C(=O)N(C)CC(=O)N[C@@H](CCc2ccc(C(F)(F)F)c(Cl)c2)C(=O)N2CCC[C@H]2C(=O)NC2(CCCC2)C(=O)N(C)[C@@H](C2CCCC2)C(=O)N(C)[C@H](C(=O)N2CCOCC2)CC(=O)N1C [PP0189] ([NMeNva]I[Sar][Sar][NPrPhe(4-CF3)][Sar][hPhe(3-Cl-4-CF3)]P[Ac5c][NMeGly(cPent)][NMeD]-Morpholide; lactam N-11)	C (A compound having a KD ratio of 0.1 or more and less than 3 is denoted as C)	B (a compound having 3 or more and less than 10 is denoted as B)
CCCN1C(=O)CN(C)C(=O)CN(C)C(=O)[C@H]([C@@H](C)CC)NC(=O)[C@H](CC)N(C)C(=O)C[C@@H](C(=O)N2CCOCC2)N(C)C(=O)[C@H](C2CCCC2)N(C)C(=O)C2(CCCC2)NC(=O)[C@@H]2CCCN2C(=O)[C@H](CCc2ccc(C(F)(F)F)c(Cl)c2)NC(=O)CN(C)C(=O)[C@@H]1Cc1ccc(C(F)(F)F)cc1 [PP0190] ([NMeAbu]I[Sar][Sar][NPrPhe(4-CF3)][Sar][hPhe(3-Cl-4-CF3)]P[Ac5c][NMeGly(cPent)][NMeD]-Morpholide; lactam N-11)	B (a compound having 3 or more and less than 10 is denoted as B)	B (a compound having 3 or more and less than 10 is denoted as B)
CCCN1C(=O)[C@@H]2CCN2C(=O)[C@H](C)N(C)C(=O)[C@H]([C@@H](C)CC)NC(=O)[C@H](CC(F)(F)F)N(C)C(=O)C[C@@H](C(=O)N2CCOCC2)N(C)C(=O)[C@H](C2CCCC2)N(C)C(=O)C2(CCCC2)NC(=O)[C@@H]2CCCN2C(=O)[C@H](CCc2ccc(C(F)(F)F)c(Cl)c2)NC(=O)CN(C)C(=O)[C@@H]1Cc1ccc(C(F)(F)F)cc1 [PP0191] ([NMeAbu(4,4,4-F3)]I[NMeA][Aze][NPrPhe(4-CF3)][Sar][hPhe(3-Cl-4-CF3)]P[Ac5c][NMeGly(cPent)][NMeD]-Morpholide; lactam N-11)	B (a compound having 3 or more and less than 10 is denoted as B)	C (A compound having a KD ratio of 0.1 or more and less than 3 is denoted as C)
CCCN1C(=O)[C@@H]2CCN2C(=O)[C@H](C)N(C)C(=O)[C@H]([C@@H](C)CC)NC(=O)[C@H](C2CCC2)N(C)C(=O)C[C@@H](C(=O)N2CCOCC2)N(C)C(=O)[C@H](C2CCCC2)N(C)C(=O)C2(CCCC2)NC(=O)[C@@H]2CCCN2C(=O)[C@H](CCc2ccc(C(F)(F)F)c(Cl)c2)NC(=O)CN(C)C(=O)[C@@H]1Cc1ccc(C(F)(F)F)cc1 [PP0192] ([NMeGly(cBu)]I[NMeA][Aze][NPrPhe(4-CF3)][Sar][hPhe(3-Cl-4-CF3)]P[Ac5c][NMeGly(cPent)][NMeD]-Morpholide; lactam N-11)	B (a compound having 3 or more and less than 10 is denoted as B)	C (A compound having a KD ratio of 0.1 or more and less than 3 is denoted as C)
CCC[C@H]1C(=O)N[C@@H]([C@@H](C)CC)C(=O)N(C)[C@@H](C)C(=O)N2CC[C@H]2C(=O)N(CCC)[C@@H](Cc2ccc(C(F)(F)F)cc2)C(=O)N(C)CC(=O)N[C@@H](CCc2ccc(C(F)(F)F)c(Cl)c2)C(=O)N2CCC[C@H]2C(=O)NC2(CCCC2)C(=O)N(C)[C@@H](C2CCCC2)C(=O)N(C)[C@H](C(=O)N2CCOCC2)CC(=O)N1C [PP0193] ([NMeNva]I[NMeA][Aze][NPrPhe(4-CF3)][Sar][hPhe(3-Cl-4-CF3)]P[Ac5c][NMeGly(cPent)][NMeD]-Morpholide; lactam N-11)	C (A compound having a KD ratio of 0.1 or more and less than 3 is denoted as C)	C (A compound having a KD ratio of 0.1 or more and less than 3 is denoted as C)
CCCN1C(=O)[C@@H]2CCN2C(=O)[C@H](C)N(C)C(=O)[C@H]([C@@H](C)CC)NC(=O)[C@H](CC)N(C)C(=O)C[C@@H](C(=O)N2CCOCC2)N(C)C(=O)[C@H](C2CCCC2)N(C)C(=O)C2(CCCC2)NC(=O)[C@@H]2CCCN2C(=O)[C@H](CCc2ccc(C(F)(F)F)c(Cl)c2)NC(=O)CN(C)C(=O)[C@@H]1Cc1ccc(C(F)(F)F)cc1 [PP0194] ([NMeAbu]I[NMeA][Aze][NPrPhe(4-CF3)][Sar][hPhe(3-Cl-4-CF3)]P[Ac5c][NMeGly(cPent)][NMeD]-Morpholide; lactam N-11)	B (a compound having 3 or more and less than 10 is denoted as B)	C (A compound having a KD ratio of 0.1 or more and less than 3 is denoted as C)
CCCN1C(=O)CN(C)C(=O)CN(C)C(=O)[C@H]([C@@H](C)CC)NC(=O)[C@H](CC(C)C)N(C)C(=O)C[C@@H](C(=O)N2CCOCC2)N(C)C(=O)[C@H](C2CCCC2)N(C)C(=O)C2(CCCC2)NC(=O)[C@@H]2CC(F)(F)CN2C(=O)[C@H](CCc2ccc(C(F)(F)F)c(Cl)c2)NC(=O)CN(C)C(=O)[C@@H]1Cc1ccc(C(F)(F)F)cc1 [PP0195] ([NMeL]I[Sar][Sar][NPrPhe(4-CF3)][Sar][hPhe(3-Cl-4-CF3)][Pro(4,4-F2)][Ac5c][NMeGly(cPent)][NMeD]-Morpholide; lactam N-11)	C (A compound having a KD ratio of 0.1 or more and less than 3 is denoted as C)	B (a compound having 3 or more and less than 10 is denoted as B)
